# Results published in patent publication US4522815A, “Anthracycline glycosides” (priority 1982, dated 1985).
# Where two headings read alike, the source gives them in different places.
# Key:
# Gross leukemia [1] = test: Antitumor activity against i.v. transplanted Gross leukemia in C3H/Me mice, treatment i.v. on day 1; type: in vivo; details: for T/C, median survival time; % over untreated controls / Toxic deaths: Table 6
# From the text: (§1) Results of studies performed in C3H/Me mice carrying i.v. transplanted Gross leukemia and treated i.v. the day after tumor transplantation, are reported in Table 6. […] The compounds Ib and Id were further investigated for oral activity on Gross leukemic transplanted i.v., in comparison with DNR, DX given i.v. and 4-dm DNR given oral route.
# Antitumor activity against i.v. Gross leukemia.
# Treatment i.v. on day 1.
# [2] = test system: P388 leukemia cells resistant to DX (P388/DX); test: Cytotoxicity on doxorubicin-resistant P388/DX leukemia cells in vitro, 48 hrs exposure; type: cell-based, mice; details: for IC50: Mus musculus, P388/DX, dose giving 50% reduction of cell number vs untreated controls, read-out: ID50 P388/DX; for R: Ratio between ID50 on P388/DX and ID50 on P388: Table 4
# Protocol: Compounds Ib and Id were studied "in vitro" on HeLa and P388 leukemia cells sensitive (P388) and resistant (P388/DX) to DX and […].
# Compound Ib was studied on P388/DX "in vitro".
# P388 and P388/DX leukemia cells were harvested from mice ascitic fluid and adapted to grow in suspension "in vitro". Cytotoxicity tests were carried out exposing the cells to various drug concentrations for 48 hrs; at the end of the exposure period, cells were counted with a coulter cell counter, and the ID50 (dose which gives 50% reduction of the cell number in comparison with untreated controls) was calculated.
# Effect on sensitive and doxorubicin-resistant P388
# ^a Dose giving 50% reduction of cell number in comparison with
# ^c P388 leukemia cells resistant to DX
# ^d Ratio between ID50 on P388/DX and ID50 on P388
# HeLa cells = test: Colony inhibition test against HeLa cells in vitro (cloning efficiency), treatment for 24 hrs; type: cell-based; details: for activity at 0.0062 µg/mL: 6.2 ng/ml; for activity at 0.025 µg/mL: 25 ng/ml; for IC50: HeLa colony inhibition; for activity at 0.0125 µg/mL: 12.5 ng/ml
# [3] = test system: P388 leukemia cells sensitive to DX; test: Cytotoxicity on doxorubicin-sensitive P388 leukemia cells in vitro, 48 hrs exposure; type: cell-based, mice; details: for IC50: Mus musculus, P388, dose giving 50% reduction of cell number vs untreated controls, 48 hrs, read-out: ID50 P388
# From the text: P388 and P388/DX leukemia cells were harvested from mice ascitic fluid and adapted to grow in suspension "in vitro".
# ascitic P388 leukemia = test: Antitumor activity against ascitic P388 leukemia in CDF-1 mice, treatment i.p. on day 1; type: in vivo
# Protocol: The primary screening […] was carried out in CDF-1 mice bearing ascitic P388 leukemia (10^6 cells/mouse). Both IIa and IIc were suspended in 10%. Tween 80 and injected intraperitoneally.
# Results of the primary screening "in vivo" carried out in CDF-1 mice bearing P388 ascitic leukemia and treated i.p. the day after tumor transplantation, are reported in Table 5.
# Antitumor activity against ascitic P388 leukekemia.
# (§2) Treatment i.p. on day 1.
# ^a median survival time; % over untreated controls
# ^b long term survivors (≥ 60 days)
# ^c evaluated on the basis of autoptic findings on dead mice
# (§3) ^d data of two experiments (range)
# ^e date of three experiments (range)
# Antitumor activity of Ib and Id against ascitic P388
# as §2
# Gross leukemia [4] = test: Oral activity against i.v. transplanted Gross leukemia (i.v. comparators); type: in vivo, C3H/Me mice; details: for T/C %, median survival time / Toxic deaths: Table 7
# From the text: as §1
# Oral activity of Ib and Id against Gross leukemia
# ^a days after transplantation
# as §3
# [5] = Homo sapiens, HeLa, Table 3, 24 hrs, read-out: No of colonies, % of untreated controls
# [6] = Homo sapiens, HeLa, 24 h, read-out: No of colonies, % of untreated controls, Table 1, 24 hrs
# [7] = Homo sapiens, HeLa, 24 h, read-out: No of colonies, % of untreated controls, Table 3, 24 hrs
# [8] = Table 2, 4.4 mg/kg i.p. day 1, two experiments
# [9] = Table 2, 6.6 mg/kg i.p. day 1, two (DNR) or three (DX) experiments
# [10] = Table 5, 2.9 mg/kg i.p. day 1, two experiments
# [11] = Table 5, 4.4 mg/kg i.p. day 1, DNR: two experiments
compound,measurement,setting,value
"CC(=O)[C@]1(O)Cc2c(O)c3c(c(O)c2[C@@H](O[C@H]2C[C@H](O)[C@@H](O)[C@H](C)O2)C1)C(=O)c1ccccc1C3=O [Compound Ib, 4-demethoxy-7-0-(2,6-dideoxy-α-L-arabino-hexopyranosyl)-daunomycinone]","antitumor activity, comparison of the Mx TD","Gross leukemia [1]; Gross leukemia, i.v. day 1",more active than DNR
same,toxicity and potency vs parent compounds,"Gross leukemia [1]; Gross leukemia, i.v. day 1",more toxic and more potent than the parent compounds
same,"T/C, median survival time; % over untreated controls",Gross leukemia [1]; 2.9 mg/kg i.v. day 1,214%
same,Toxic deaths,Gross leukemia [1]; 2.9 mg/kg i.v. day 1,0/7
same,"T/C, median survival time; % over untreated controls",Gross leukemia [1]; 4.4 mg/kg i.v. day 1,100%
same,Toxic deaths,Gross leukemia [1]; 4.4 mg/kg i.v. day 1,7/8
same,activity on P388/DX leukemia cells,[2]; 48 hrs,very active
same,IC50,[2]; 48 hrs,0.03 µg/mL
same,R: Ratio between ID50 on P388/DX and ID50 on P388,[2]; 2880 min,25
same,times less cytotoxic than 4-dm DNR,"HeLa cells; HeLa cells cloning efficiency, vs 4-dm DNR",6 times
same,times less cytotoxic than DNR,"HeLa cells; HeLa cells cloning efficiency, vs DNR",3 times
same,activity at 0.0015 µg/mL,"HeLa cells; Homo sapiens, HeLa, Table 3, 1.5 ng/ml, 24 hrs, read-out: No of colonies, % of untreated controls",107%
same,activity at 0.0062 µg/mL,HeLa cells; [5],87%
same,activity at 0.025 µg/mL,HeLa cells; [5],67%
same,activity at 0.1 µg/mL,"HeLa cells; Homo sapiens, HeLa, Table 3, 100 ng/ml, 24 hrs, read-out: No of colonies, % of untreated controls",0%
same,IC50,"HeLa cells; Homo sapiens, Table 3, 24 hrs, read-out: ID50 (the source's name)",~0.035 µg/mL
same,IC50,[3],0.0012 µg/mL
same,cytotoxicity on P388 leukemia cells,[3]; vs DNR,about as cytotoxic as DNR
same,"LTS, long term survivors (≥ 60 days)","ascitic P388 leukemia; Table 5, 1.25 mg/kg i.p. day 1",0/8
same,"T/C, median survival time; % over untreated controls","ascitic P388 leukemia; Table 5, 1.25 mg/kg i.p. day 1",140%
same,Toxic deaths (autoptic findings on dead mice),"ascitic P388 leukemia; Table 5, 1.25 mg/kg i.p. day 1",0/8
same,"LTS, long term survivors (≥ 60 days)","ascitic P388 leukemia; Table 5, 2.5 mg/kg i.p. day 1",0/9
same,"T/C, median survival time; % over untreated controls","ascitic P388 leukemia; Table 5, 2.5 mg/kg i.p. day 1",163%
same,Toxic deaths (autoptic findings on dead mice),"ascitic P388 leukemia; Table 5, 2.5 mg/kg i.p. day 1",3/9
same,"LTS, long term survivors (≥ 60 days)","ascitic P388 leukemia; Table 5, 5 mg/kg i.p. day 1",0/10
same,"T/C, median survival time; % over untreated controls","ascitic P388 leukemia; Table 5, 5 mg/kg i.p. day 1",63%
same,Toxic deaths (autoptic findings on dead mice),"ascitic P388 leukemia; Table 5, 5 mg/kg i.p. day 1",10/10
same,times less potent than 4-dm DNR,"ascitic P388 leukemia; ascitic P388, i.p. day 1",about 1.5 times
same,times more potent than DNR,"ascitic P388 leukemia; ascitic P388, i.p. day 1",2 times
same,"antileukemia activity, comparison at the Mx TD",ascitic P388 leukemia; vs DNR and 4-dm DNR,less active than DNR and 4-dm DNR
same,"T/C %, median survival time","Gross leukemia [4]; oral +1, 2.9 mg/kg",167%
same,Toxic deaths,"Gross leukemia [4]; oral +1, 2.9 mg/kg",0/10
same,"T/C %, median survival time","Gross leukemia [4]; oral +1, 4.4 mg/kg",208%
same,Toxic deaths,"Gross leukemia [4]; oral +1, 4.4 mg/kg",0/10
same,"T/C %, median survival time","Gross leukemia [4]; oral +1, 6.6 mg/kg",116%
same,Toxic deaths,"Gross leukemia [4]; oral +1, 6.6 mg/kg",4/9
same,antitumor activity given orally at day 1,"Gross leukemia [4]; oral day 1, Gross leukemia, Id at the Mx TD vs DX i.v.","good antitumor activity when given orally at day 1, comparable to that of 4-dm DNR"
"COc1cccc2c1C(=O)c1c(O)c3c(c(O)c1C2=O)C[C@@](O)(C(C)=O)C[C@@H]3O[C@H]1C[C@H](N)[C@H](O)[C@H](C)O1 [DNR, daunorubicin, reference compound]","T/C, median survival time; % over untreated controls",Gross leukemia [1]; 15 mg/kg i.v. day 1,171%
same,Toxic deaths,Gross leukemia [1]; 15 mg/kg i.v. day 1,0/8
same,"T/C, median survival time; % over untreated controls",Gross leukemia [1]; 22.5 mg/kg i.v. day 1,171%
same,Toxic deaths,Gross leukemia [1]; 22.5 mg/kg i.v. day 1,0/8
same,IC50,[2]; 48 hrs,0.8 µg/mL
same,fold less active on the resistant than on the sensitive line,"[2]; P388/DX vs P388, 2880 min",about 500 fold
same,R: Ratio between ID50 on P388/DX and ID50 on P388,[2]; 2880 min,470
same,IC50,"HeLa cells; Homo sapiens, HeLa, 24 h, read-out: ID50, Table 1, 24 hrs",~0.016 µg/mL
same,IC50,"HeLa cells; Homo sapiens, HeLa, 24 h, read-out: ID50, Table 3, 24 hrs",~0.012 µg/mL
same,activity at 0.0062 µg/mL,HeLa cells; [6],106%
same,activity at 0.0125 µg/mL,HeLa cells; [6],74%
same,activity at 0.025 µg/mL,HeLa cells; [6],12%
same,activity at 0.0062 µg/mL,HeLa cells; [7],83%
same,activity at 0.0125 µg/mL,HeLa cells; [7],51%
same,activity at 0.025 µg/mL,HeLa cells; [7],9%
same,IC50,[3],0.0017 µg/mL
same,"LTS, long term survivors (≥ 60 days)","ascitic P388 leukemia; Table 2, 2.9 mg/kg i.p. day 1",0/10
same,"T/C, median survival time; % over untreated controls","ascitic P388 leukemia; Table 2, 2.9 mg/kg i.p. day 1",160%
same,Toxic deaths (autoptic findings on dead mice),"ascitic P388 leukemia; Table 2, 2.9 mg/kg i.p. day 1",0/10
same,"T/C, median survival time; % over untreated controls","ascitic P388 leukemia; Table 2, 4.4 mg/kg i.p. day 1, data of two experiments (range)",165-170%
same,"LTS, long term survivors (≥ 60 days)",ascitic P388 leukemia; [8],0/10
same,Toxic deaths (autoptic findings on dead mice),ascitic P388 leukemia; [8],0/20
same,"T/C, median survival time; % over untreated controls","ascitic P388 leukemia; Table 2, 6.6 mg/kg i.p. day 1, range of two (DNR) or three (DX) experiments",150-160%
same,"LTS, long term survivors (≥ 60 days)",ascitic P388 leukemia; [9],0/10
same,Toxic deaths (autoptic findings on dead mice),ascitic P388 leukemia; [9],7/20
same,"LTS, long term survivors (≥ 60 days)",ascitic P388 leukemia; [10],0/18
same,Toxic deaths (autoptic findings on dead mice),ascitic P388 leukemia; [10],0/8
same,"T/C, median survival time; % over untreated controls","ascitic P388 leukemia; Table 5, 2.9 mg/kg i.p. day 1, two experiments (range)",159-194%
same,"LTS, long term survivors (≥ 60 days)",ascitic P388 leukemia; [11],0/18
same,Toxic deaths (autoptic findings on dead mice),ascitic P388 leukemia; [11],7/18
same,"T/C, median survival time; % over untreated controls","ascitic P388 leukemia; Table 5, 4.4 mg/kg i.p. day 1, DNR: two experiments (range)",140-184%
same,"T/C %, median survival time","Gross leukemia [4]; i.v. +1, 15 mg/kg",200%
same,Toxic deaths,"Gross leukemia [4]; i.v. +1, 15 mg/kg",0/10
same,"T/C %, median survival time","Gross leukemia [4]; i.v. +1, 22.5 mg/kg",125%
same,Toxic deaths,"Gross leukemia [4]; i.v. +1, 22.5 mg/kg",6/10
